# Literature values, collected in patent publication US20240285636A1, “PHARMACEUTICAL COMPOSITION AND USE OF THE PHARMACEUTICAL COMPOSITION” (LIBBS FARMACÊUTICA LTDA, priority 2021, published 2024).
# Conditions: class IV = low solubility and low permeability
compound,measurement,value
"CCCSc1nc(N[C@@H]2C[C@H]2c2ccc(F)c(F)c2)c2nnn([C@@H]3C[C@H](OCCO)[C@@H](O)[C@H]3O)c2n1 (relative stereo) [Ticagrelor, {1S-[1α,2α,3β(1S*,2R*),5β}-3-(7-{[2-(3,4-difluorophenyl)-cyclopropyl]amino}-5-(propylthio)-3H-1,2,3-triazol[4,5-d]pyrimidin-3-yl)-5-(2-hydroxyethoxy)cyclopentane-1,2-diol]",Biopharmaceutical Classification System class,class IV
